# Results reported in patent US20240262826A1, “WILD TYPE KIT INHIBITORS” (Blueprint Medicines Corporation, priority 2022, published 2024).
# Biological target: T1, wild type c-kit (Homo sapiens (Human), UniProt P10721)
# Test: PathScan phospho c-kit (Tyr719) sandwich ELISA in SCF-stimulated M-07e cells (pKIT assay)
# Type: cell-based
# Conditions: ELISA assay (values not marked *)
# Summary of the method: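 Serum- and GM-CSF-starved M-07e cells (4 h) pretreated 60 min at 37 °C with an 8-point compound series in duplicate (0.25% DMSO), then stimulated with human SCF (500 ng/mL stock) 10 min at room temperature. Lysate c-kit Tyr719 phosphorylation quantified by sandwich ELISA with TMB read-out; IC50 from 4-parameter logistic fit.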
# T1 sequence (P10721 26-976): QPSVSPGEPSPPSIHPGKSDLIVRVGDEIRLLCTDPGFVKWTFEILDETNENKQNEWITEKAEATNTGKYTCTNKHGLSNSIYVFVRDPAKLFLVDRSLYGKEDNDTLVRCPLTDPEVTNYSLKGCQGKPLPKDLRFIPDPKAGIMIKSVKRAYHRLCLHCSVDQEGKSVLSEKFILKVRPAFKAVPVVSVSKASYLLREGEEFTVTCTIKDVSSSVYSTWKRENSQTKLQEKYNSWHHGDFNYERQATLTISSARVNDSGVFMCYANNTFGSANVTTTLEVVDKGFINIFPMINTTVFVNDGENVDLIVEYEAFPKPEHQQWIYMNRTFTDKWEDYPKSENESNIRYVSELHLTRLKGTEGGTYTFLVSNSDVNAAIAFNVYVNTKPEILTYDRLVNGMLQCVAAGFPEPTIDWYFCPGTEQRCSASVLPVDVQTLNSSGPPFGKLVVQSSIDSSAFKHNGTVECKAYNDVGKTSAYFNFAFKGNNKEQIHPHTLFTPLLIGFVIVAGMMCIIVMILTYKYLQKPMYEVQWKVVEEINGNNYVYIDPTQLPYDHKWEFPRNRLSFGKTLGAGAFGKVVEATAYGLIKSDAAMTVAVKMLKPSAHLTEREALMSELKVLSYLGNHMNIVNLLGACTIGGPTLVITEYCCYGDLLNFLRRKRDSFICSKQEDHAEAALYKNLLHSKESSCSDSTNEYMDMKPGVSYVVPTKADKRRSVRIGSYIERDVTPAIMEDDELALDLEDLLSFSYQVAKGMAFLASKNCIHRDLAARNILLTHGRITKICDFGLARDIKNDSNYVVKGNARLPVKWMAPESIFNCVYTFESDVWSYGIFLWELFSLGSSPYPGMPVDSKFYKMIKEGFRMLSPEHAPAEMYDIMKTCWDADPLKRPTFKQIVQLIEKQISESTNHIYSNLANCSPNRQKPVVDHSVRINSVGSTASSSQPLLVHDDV
row,SMILES,IC50
1,"Cc1cc(F)c(-c2nnn([C@H]3C[C@@H](C(F)(F)F)C3)n2)cc1NC(=O)c1cnn2ccc(N3CCC(C)(O)CC3)cc12 [Example 109, N-(4-fluoro-2-methyl-5-(2-((1s,3s)-3-(trifluoromethyl)cyclobutyl)-2H-tetrazol-5-yl)phenyl)-5-(4-hydroxy-4-methylpiperidin-1-yl)pyrazolo[1,5-a]pyridine-3-carboxamide]",4.9 nM
2,"COCCNc1ccn2ncc(C(=O)Nc3cc(-n4nnc(C5CN(C(=O)OC)C5)n4)ccc3Cl)c2c1 [Example 113, methyl 3-(2-(4-chloro-3-(5-((2-methoxyethyl)amino)pyrazolo[1,5-a]pyridine-3-carboxamido)phenyl)-2H-tetrazol-5-yl)azetidine-1-carboxylate]",6.4 nM

# Biological target: T1, wild type c-kit
# Test: MSD Phospho c-Kit (Tyr721) Assay Whole Cell Lysate Kit in SCF-stimulated M-07e cells (pKIT assay, marked *)
# Type: cell-based
# Conditions: Meso Scale Discovery (MSD) assay (values marked *)
# Experimental: The ability of compounds of the disclosure (described herein as test compounds) to inhibit autophosphorylation of wild type c-kit was measures using either a PathScan phospho c-kit (Tyr719) sandwich ELISA (CST #7298) or a Phospho c-Kit (Tyr721) Assay Whole Cell Lysate Kit (MSD: 515DPD/catalog number K15119D-2).
# For the MSD Phospho c-Kit (Tyr721) Assay Whole Cell Lysate Kit: M-07e cells were maintained in Iscove's Modified Dulbecco's Medium (IMDM) media supplemented with 10% FBS, 5 ng/ml granulocyte-macrophage colony-stimulating factor (GM-CSF) and 100 units/mL Penicillin-Streptomycin, and grown in a 37° C., 5% CO2 in a humidified tissue culture incubator. M-07e cells were washed with phenol red-free, serum-free, GM-CSF-free IMDM and seeded in the same media at 100,000 cells well in a volume of 50 ul in a 96-well U-bottom plate. The cells were incubated for 4 hours, followed by the addition of test compound at a final DMSO concentration of 0.25% for 60 min at 37° C. to generate an 8-point dose concentration series of test compounds. The cells were stimulated with 50 ng/ml human SCF for 10 min at room temperature. Cells were then lysed by the addition of 16.5 ul of PerkinElmer 5× AlphaLISA Lysis Buffer supplemented with Cell Signaling Technologies protease/phosphatase inhibitor. Lysis was encouraged by shaking at 4° C. for 30 minutes.
# 25 ul of lysate was transferred to the MSD plate and the plate was shaken at 700 rpm at room temperature for one hour, followed by washing 3 times with Tris wash buffer. Next, 25 ul of detection antibody solution (diluted from 50× stock in antibody dilution buffer) was added. After shaking at 700 rpm at room temperature for one hour, the plate was washed 3 times with Tris wash buffer. The plate was then read on MSD Sector Imager immediately after 150 ul of reading buffer added to each well.
# An IC50 was calculated using a 4-parameter logistic nonlinear regression.
row,IC50,SMILES
1,3.8 nM,"Cc1ccc(-c2nnn(C3CC4(C3)CC4(F)F)n2)cc1NC(=O)c1cnn2ccccc12 (single isomer, unassigned) [Example 42, N-(5-(2-((3r,5r)-1,1-difluorospiro [2.3]hexan-5-yl)-2H-tetrazol-5-yl)-2-methylphenyl)pyrazolo[1,5-a]pyridine-3-carboxamide or N-(5-(2-((3s,5s)-1,1-difluorospiro[2.3]hexan-5-yl)-2H-tetrazol-5-yl)-2-methylphenyl)pyrazolo[1,5-a]pyridine-3-carboxamide]"
2,8.3 nM,"Cc1ccc(-c2nnn(C3CCOCC3)n2)cc1NC(=O)c1cnn2ccccc12 [Example 31, N-(2-methyl-5-(2-(tetrahydro-2H-pyran-4-yl)-2H-tetrazol-5-yl)phenyl)pyrazolo[1,5-a]pyridine-3-carboxamide]"
3,9.1 nM,"Cc1ccc(-c2nnn(C(C)C3CCOCC3)n2)cc1NC(=O)c1cnn2ccccc12 (single isomer, unassigned) [Example 39, (R)-N-(2-methyl-5-(2-(1-(tetrahydro-2H-pyran-4-yl)ethyl)-2H-tetrazol-5-yl)phenyl)pyrazolo[1,5-a]pyridine-3-carboxamide or (S)-N-(2-methyl-5-(2-(1-(tetrahydro-2H-pyran-4-yl)ethyl)-2H-tetrazol-5-yl)phenyl)pyrazolo[1,5-a]pyridine-3-carboxamide]"
4,1.8 nM,"Cc1ccc(-c2nnn(CC[C@@](C)(O)C(F)(F)F)n2)cc1NC(=O)c1cnn2ccccc12 (single isomer, unassigned) [Example 41, (R)-N-(2-methyl-5-(2-(4,4,4-trifluoro-3-hydroxy-3-methylbutyl)-2H-tetrazol-5-yl)phenyl)pyrazolo[1,5-a]pyridine-3-carboxamide or (S)-N-(2-methyl-5-(2-(4,4,4-trifluoro-3-hydroxy-3-methylbutyl)-2H-tetrazol-5-yl)phenyl)pyrazolo[1,5-a]pyridine-3-carboxamide]"
5,5.2 nM,COC(=O)N1CC(c2cnn(-c3ccc(Cl)c(NC(=O)c4cnn5ccccc45)c3)n2)C1 [Example 193]
6,2.4 nM,"Cc1ccc(-c2nnn(C[C@H]3CC3(F)F)n2)cc1NC(=O)c1cnn2ccccc12 (single isomer, unassigned) [Example 26, (R)—N-(5-(2-((2,2-difluorocyclopropyl)methyl)-2H-tetrazol-5-yl)-2-methylphenyl)pyrazolo[1,5-a]pyridine-3-carboxamide or (S)—N-(5-(2-((2,2-difluorocyclopropyl)methyl)-2H-tetrazol-5-yl)-2-methylphenyl)pyrazolo[1,5-a]pyridine-3-carboxamide]"
7,6.2 nM,"Cc1ccc(-c2nnn([C@H](C)C3CC3)n2)cc1NC(=O)c1cnn2ccccc12 (single isomer, unassigned) [Example 37, (R)-N-(5-(2-(1-cyclopropylethyl)-2H-tetrazol-5-yl)-2-methylphenyl)pyrazolo[1,5-a]pyridine-3-carboxamide or (S)-N-(5-(2-(1-cyclopropylethyl)-2H-tetrazol-5-yl)-2-methylphenyl)pyrazolo[1,5-a]pyridine-3-carboxamide]"
8,3.9 nM,"Cc1ccc(-c2nnn(C3CC(F)(F)C3)n2)cc1NC(=O)c1cnn2ccc(N3CCOCC3)cc12 [Example 79, N-(5-(2-(3,3-difluorocyclobutyl)-2H-tetrazol-5-yl)-2-methylphenyl)-5-morpholinopyrazolo[1,5-a]pyridine-3-carboxamide]"
9,2.7 nM,"Cc1ccc(-c2nnn(CC34CC(F)(C3)C4)n2)cc1NC(=O)c1cnn2ccccc12 [Example 30, N-(5-(2-((3-fluorobicyclo[1.1.1]pentan-1-yl)methyl)-2H-tetrazol-5-yl)-2-methylphenyl)pyrazolo[1,5-a]pyridine-3-carboxamide]"
10,1.6 nM,"Cc1ccc(-c2nnn(Cc3ccccc3F)n2)cc1NC(=O)c1cnn2ccccc12 [Example 13, N-(5-(2-(2-fluorobenzyl)-2H-tetrazol-5-yl)-2-methylphenyl)pyrazolo[1,5-a]pyridine-3-carboxamide]"
11,6.2 nM,CS(=O)(=O)N1CC(c2nnn(-c3ccc(Cl)c(NC(=O)c4cnn5ccccc45)c3)n2)C1 [Example 187]

# More lines, now with the values behind:
row,SMILES,IC50
1,Cc1ccc(-c2nnn(C3CN(S(=O)(=O)C(F)(F)F)C3)n2)cc1NC(=O)c1cnn2ccccc12 [Example 182],4 nM
2,"O=C(Nc1cc(-c2nnn(CCOCC(F)(F)F)n2)ccc1Cl)c1cnn2ccccc12 [Example 22, N-(2-chloro-5-(2-(2-(2,2,2-trifluoroethoxy)ethyl)-2H-tetrazol-5-yl)phenyl)pyrazolo[1,5-a]pyridine-3-carboxamide]",1.9 nM
3,"Cc1ccc(-c2nnn(CCOCC(F)(F)F)n2)cc1NC(=O)c1cnn2ccccc12 [Example 158, N-(2-methyl-5-(2-(2-(2,2,2-trifluoroethoxy)ethyl)-2H-tetrazol-5-yl)phenyl)pyrazolo[1,5-a]pyridine-3-carboxamide]",5.7 nM
4,"Cc1ccc(-c2nnn(C3CC(F)(F)C3)n2)cc1NC(=O)c1cnn2ccc(-c3cnn(CCO)c3)cc12 [Example 46, N-(5-(2-(3,3-difluorocyclobutyl)-2H-tetrazol-5-yl)-2-methylphenyl)-5-(1-(2-hydroxyethyl)-1H-pyrazol-4-yl)pyrazolo[1,5-a]pyridine-3-carboxamide]",0.6 nM
5,"Cc1ccc(-c2nnn([C@H](C)C3CC3)n2)cc1NC(=O)c1cnn2ccccc12 (single isomer, unassigned) [Example 38, (S)-N-(5-(2-(1-cyclopropylethyl)-2H-tetrazol-5-yl)-2-methylphenyl)pyrazolo[1,5-a]pyridine-3-carboxamide or (R)-N-(5-(2-(1-cyclopropylethyl)-2H-tetrazol-5-yl)-2-methylphenyl)pyrazolo[1,5-a]pyridine-3-carboxamide]",7.2 nM
6,"Cc1ccc(-c2nnn([C@H]3C[C@@H](C(F)(F)F)C3)n2)cc1NC(=O)c1cnn2ccccc12 [Example 23, N-(2-methyl-5-(2-((1s,3s)-3-(trifluoromethyl)cyclobutyl)-2H-tetrazol-5-yl)phenyl)pyrazolo[1,5-a]pyridine-3-carboxamide or N-(2-methyl-5-(2-((1r,3r)-3-(trifluoromethyl)cyclobutyl)-2H-tetrazol-5-yl)phenyl)pyrazolo[1,5-a]pyridine-3-carboxamide]",2.6 nM
7,"Cc1ccc(-c2nnn(CC3CC3(F)F)n2)cc1NC(=O)c1cnn2ccccc12 (stereo not drawn) [Example 6, N-(5-(2-((2,2-difluorocyclopropyl)methyl)-2H-tetrazol-5-yl)-2-methylphenyl)pyrazolo[1,5-a]pyridine-3-carboxamide]",4.5 nM
8,"Cc1ccc(-c2nnn(CC3CCCCO3)n2)cc1NC(=O)c1cnn2ccccc12 (stereo not drawn) [Example 34, N-(2-methyl-5-(2-((tetrahydro-2H-pyran-2-yl)methyl)-2H-tetrazol-5-yl)phenyl)pyrazolo[1,5-a]pyridine-3-carboxamide]",9.5 nM
9,"Cc1ccc(-c2nnn(C3CC3)n2)cc1NC(=O)c1cnn2ccccc12 [Example 28, N-(5-(2-cyclopropyl-2H-tetrazol-5-yl)-2-methylphenyl)pyrazolo[1,5-a]pyridine-3-carboxamide]",9.1 nM

# Biological target: human P-glycoprotein (P-gp, MDR1) (Homo sapiens (Human), UniProt P08183)
# Sequence (P08183 whole entry): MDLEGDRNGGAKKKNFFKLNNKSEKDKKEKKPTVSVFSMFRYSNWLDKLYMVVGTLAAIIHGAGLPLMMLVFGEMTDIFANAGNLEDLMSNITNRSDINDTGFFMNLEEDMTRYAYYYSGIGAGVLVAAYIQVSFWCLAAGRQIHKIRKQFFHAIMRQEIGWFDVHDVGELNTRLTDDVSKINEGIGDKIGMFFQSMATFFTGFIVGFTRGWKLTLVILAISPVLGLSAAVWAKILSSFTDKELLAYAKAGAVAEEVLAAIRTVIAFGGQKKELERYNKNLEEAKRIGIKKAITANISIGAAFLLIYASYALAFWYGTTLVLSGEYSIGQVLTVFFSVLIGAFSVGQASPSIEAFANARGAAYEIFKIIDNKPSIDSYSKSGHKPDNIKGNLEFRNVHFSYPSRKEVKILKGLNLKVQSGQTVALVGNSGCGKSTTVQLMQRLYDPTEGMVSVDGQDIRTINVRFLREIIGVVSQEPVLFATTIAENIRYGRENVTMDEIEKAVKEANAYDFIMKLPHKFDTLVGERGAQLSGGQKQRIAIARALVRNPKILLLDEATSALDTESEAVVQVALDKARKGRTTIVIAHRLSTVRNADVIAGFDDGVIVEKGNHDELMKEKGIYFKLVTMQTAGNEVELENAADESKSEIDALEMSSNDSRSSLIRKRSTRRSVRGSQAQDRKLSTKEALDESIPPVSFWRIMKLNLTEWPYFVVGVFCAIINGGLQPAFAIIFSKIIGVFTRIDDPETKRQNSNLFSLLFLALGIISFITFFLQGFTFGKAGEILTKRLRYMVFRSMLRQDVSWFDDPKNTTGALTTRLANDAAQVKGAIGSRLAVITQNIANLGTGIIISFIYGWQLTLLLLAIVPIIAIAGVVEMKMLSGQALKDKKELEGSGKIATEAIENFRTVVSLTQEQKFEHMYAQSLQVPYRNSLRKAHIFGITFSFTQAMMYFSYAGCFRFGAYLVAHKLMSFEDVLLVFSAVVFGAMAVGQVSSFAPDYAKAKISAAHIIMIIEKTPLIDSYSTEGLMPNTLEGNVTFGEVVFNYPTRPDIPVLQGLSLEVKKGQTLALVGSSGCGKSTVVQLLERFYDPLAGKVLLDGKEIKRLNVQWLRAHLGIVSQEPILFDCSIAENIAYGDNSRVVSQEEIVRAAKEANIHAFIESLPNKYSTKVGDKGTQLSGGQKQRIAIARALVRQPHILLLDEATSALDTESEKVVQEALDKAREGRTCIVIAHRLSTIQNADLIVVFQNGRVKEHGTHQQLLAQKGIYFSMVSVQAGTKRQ
# Test: MDCK-MDR1 cell monolayer drug transport assay (P-gp efflux ratio)
# Type: in vitro ADME
# Conditions: pH 7.4, MDCK-MDR1 cells, 1 uM concentration of compound, read-out: Pgp Efflux Ratio, 1 uM
# Summary of the method: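 P-gp substrate potential tested in MDCK-MDR1 monolayers on Transwell supports, cultured 4-8 days; monolayers with TEER <42 ohms·cm2 discarded. Transport run in HBSS (10 mM HEPES, pH 7.4) at 37° C with compound working solution at 1 μM.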
row,SMILES,"efflux ratio at 2 h, 1 µM"
1,"Cc1cc(F)c(-c2nnn([C@H]3C[C@@H](C(F)(F)F)C3)n2)cc1NC(=O)c1cnn2ccc(N3CCC(C)(O)CC3)cc12 [Example 109, N-(4-fluoro-2-methyl-5-(2-((1s,3s)-3-(trifluoromethyl)cyclobutyl)-2H-tetrazol-5-yl)phenyl)-5-(4-hydroxy-4-methylpiperidin-1-yl)pyrazolo[1,5-a]pyridine-3-carboxamide]",15.4
2,"COCCNc1ccn2ncc(C(=O)Nc3cc(-n4nnc(C5CN(C(=O)OC)C5)n4)ccc3Cl)c2c1 [Example 113, methyl 3-(2-(4-chloro-3-(5-((2-methoxyethyl)amino)pyrazolo[1,5-a]pyridine-3-carboxamido)phenyl)-2H-tetrazol-5-yl)azetidine-1-carboxylate]",3.4
